PMC9411606, “Control cell migration by engineering integrin ligand assembly” (Nature Communications, 2022)

Experiments:
[1] = Circular dichroism (CD) spectroscopy of peptide assemblies; assay type: physicochemical; conditions: 100 µM, aqueous, 0.5 mm path
Protocol: CD spectra of the peptide assemblies in aqueous solutions were recorded under the nitrogen atmosphere using a spectrophotometer JASCO J-820 (Jasco, Japan). A quartz cuvette with 0.5 mm path length was used as a sample container. Continuous scanning mode is applied. And each sample is scanned three times to obtain an averaged spectrum.

[2] = system: cells lacking integrin α3β1 expression; assay: Cell adhesion assay, cells lacking integrin α3β1; assay type: cell-based, human; conditions: coated with 100 µM, 1 h at 37 °C, n = 30
Protocol: (§1) The 96-well microplates wells were coated with peptide assemblies (the concentration of FFFIKLLI was kept at 100 μM constantly) for 12 hr at 37 °C before blocked with the Blocking Buffer (2% BSA, 1 mM CaCI2 and 1 mM MnCI2 in PBS) for 1 hr at 37 °C. Cells were collected from culture dishes and suspended in the Blocking Buffer containing anti-laminin-5 (P3H9-2, MAB1947, Chemicon, 5 μg/ml), anti-fibronectin (IST-9, ab6328, Abcam, 20 μg/ml) or IgG isotype control (20 μg/ml, Abcam) before immediately seeded to the coated well (20,000 cells/well) and allowed to incubate at 37 °C for 1 h. The wells were washed for three times with the Blocking Buffer and the phase-contrast images were captured by IncucyteS3 (Essen Bioscience) with a 10× objective.

[3] = system: integrin knockdown HuH-7 cells; assay: Cell adhesion assay, integrin knockdown HuH-7; assay type: cell-based, human; conditions: coated with 100 µM FFFIKLLI, n = 30
Protocol: Integrin β1 shRNA plasmid (#sc-29375-SH), Integrin α3 shRNA plasmid (#sc-35684-SH), Integrin α6 shRNA plasmid (#sc-43129-SH), and control shRNA plasmid-A (#sc-108060) were purchased from Santa Cruz Biotechnology for knockdown of the target integrins. The knockdown efficiency was evaluated by western blotting.
as §1

HuH-7 cells = assay: Morphodynamics analysis (edge velocity); assay type: cell-based, human; conditions: for Retraction velocity / Protrusion velocity: median
Protocol: The whole-cell morphodynamics maps were generated using the open-source ImageJ plugin “ADAPT”[46]. The analyses were done on the maximum intensity projection of 5.5-µm stack images of mRuby-Lifeact-7 transfected HuH-7 cells pretreated with peptides for 12 hr. A spinning-disk confocal (Olympus SD-OSR) equipped with the camera Prime BSI sCMOS camera and a 100×/1.35 Silicon UPlanSApo objective was used to obtain the images every 2 min. All velocity values are directly measured using the plugin and plotted using GraphPad Prism. Briefly, the fluorescent images were Gaussian filtered to suppress noise and then a gray-level threshold was applied to create a binary image. The cell boundary was taken as pixels bordering segmented regions and the resulting segmentation is used as the seed for the region-growing algorithm in the next frame. […] The change in gray level was used to calculate the membrane velocity at each point and for a better visual representation, the resulting velocity map images (around 10000 × 100 pixels) were stretched to optimize visualization. […]

[4] = entire periphery, HuH-7, pretreated 12 hr, violin plot
[5] = vin258-transfected HuH-7, 12 hr, n = 10 cells

## FFFIKLLI [assembling ligand: FFF coupled to the N-terminus of IKLLI; self-assembles into nanofilaments]
[1]
  secondary structure of self-assembly: random coil structure
[2]
  adherence to FFFIKLLI-coated dishes: washed out
[3]
  adherence after knockdown of α3 or β1 subunit: significantly reduced their adherence
HuH-7 cells; HuH-7, FFFIKLLI 100 μM, 12 h
  trailing edge retraction and leading-edge protrusion: restricted both trailing edge retraction and leading-edge protrusion
HuH-7 cells; Tiam1/Rac1-activated HuH-7, 12 hr, n = 7, 8 cells
  Retraction velocity: 0.035 µm/min
HuH-7 cells; [4]
  Protrusion velocity: 0.0072 µm/min
  Retraction velocity: 0.0076 µm/min
HuH-7 cells; [5]
  Protrusion velocity: 0.0086 µm/min
  Retraction velocity: 0.0080 µm/min
